Experiment [1] has as its system mouse mesenteric resistance arteries. Description: Vascular reactivity in mouse mesenteric resistance arteries (wire myograph). The note with it: 10^−5 mol/L, pre-constricted with U-46619 0.1 μmol/L, n=11. The procedure:
On the day preceding the experiment, adult male mice (age 3-6 months) were decapitated and mesenteric tissue was dissected and placed on an agar plate with ice-cold HEPES-physiological saline solution (PSS) containing: 123 mM NaCl, 4.7 mM KCl, 2.5 mM CaCl2*2H2O, 1.2 mM MgSO4*7H2O, 20 mM NaHCO3, 1.2 mM KH2PO4, 26 μM EDTA, 11 mM glucose and 2.38 mg/ml HEPES Fat and connective tissue were carefully removed, arterioles (150-200 μm diameter) were cut into 3 mm segments and stored overnight at 4° C. The vessels were then mounted carefully on two tungsten wires (0.025 mm diameter) with care not to damage the endothelium, and mounted on a four-chamber wire myograph (DMT, Denmark, Model 620 M). Arteries were then equilibrated at 37° C. for 30 min in the myograph chamber filled with PSS and constantly bubbled with gas containing 21% O2, 74% N2, and 5% CO2 and set at 1 mN resting tension obtained in the LabChart Pro software (AD instruments, Oxfordshire, UK). […] After contraction reached steady state, cumulative concentrations of 5,6-diHETE lactone were added (1 μM to 10 μM) in DMSO (up to 0.16%) and the % relaxation responses were determined relative to the relaxation response to 100 μM papaverine.
To evaluate the vasodilation mediated by 5,6-diHETE lactone, mesenteric arteries from C57BL were extracted and monitored for their dilation in a wire myograph chamber under physiological conditions. […]

For another experiment, the system named is rat mesenteric arteries. Nature of the experiment: Relaxation of rat mesenteric arteries from NT and 5/6Nx rats (wire myograph). The note with it: for % relaxation (relative to papaverine): 10^−6M, n=11.
Experiment [2] has as its system Human adipose arterioles (HAAs). Description: Dilation of human adipose arterioles (HAAs), cannulated, video diameter measurement. As to conditions: for max dilation: 10^−7 mol/L, pre-constricted with endothelin-1. The procedure:
Human adipose arterioles (HAAs) were extracted from adipose tissues obtained from subjects without coronary artery disease (7 normotensives and 7 hypertensives). The HAAs (100-200 μm in diameter) were cannulated with 2 glass micropipettes in an organ chamber, and the internal diameter of arterioles was measured with a video system. Arterioles were pre-constricted with endothelin-1 (10-50 nmol/L) to reduce the passive diameter by 30-50%. Relaxation was measured in response to the increasing concentrations of 5,6-diHETE lactone (10^−4-10^−1 μmol/L). To examine the involvement of NO in the 5,6-diHETE lactone-induced dilation, relaxation responses were determined in the presence or absence of nitric oxide synthase (NOS) antagonist (100 μmol/L N[omega]-nitro-Larginine methyl ester [L-NAME]).
Endothelial cell denudation was achieved by perfusion of the vessels with pre-warmed air as previously described (H. Miura, Circ. Res. 92 (2003)). At the end of each experiment, papaverine (100 μmol/L), an endothelium-independent vasodilator, was added to determine the maximal dilation for normalization of dilator responses. Vasodilator responses are expressed as the percentage of maximal dilation, with 100% representing complete relaxation (maximal diameter).

The test system of another experiment is HUVEC. Nature of the experiment: Calcium imaging, intracellular [Ca2+]i increase in HUVEC. It counts as cell-based, human. The protocol: HUVECs were plated onto 24-well plates and grown to 70% confluence. To monitor cytosolic Ca^2+ signals, cells were loaded with fluo-3 AM (4 μmol/L; Molecular Probes) and incubated for 40 min at 37° C. in complete medium that contained […] pluronic acid. After washing twice with HEPES buffer that contained (in mmol/L) 1.25 CaCl2, 5.5 D-glucose, 10 HEPES, 5 KCl, 0.5 MgCl2, and 140 NaCl (brought to pH 7.4 with NaOH); the plates were incubated at 37° C. for 15 additional minutes prior to fluorescence imaging. Fluorescence images were acquired every 1 s over the course of 5 min in cells treated with 4α-phorbol-12, 13-didecanoate (4α-PDD; a specific TRPV4 agonist; 10 μmol/L), 5,6-diHETE ((±)5,6-dihydroxy-8Z,11Z,14Z,17Z-eicosatetraenoic acid) 1, 5 lactone (0.01-5 μmol/L) and 5,6-diHETE (hydrolytic isomer of 5,6-EEQ; 2 and 5 μmol/L). The calculated ratio between maximal intensity (F1) and basal intensity (F0) was determine for each experiment and presented as Average±SD.
To investigate the effect of 5,6-diHETE ((±)5,6-dihydroxy-8Z,11Z,14Z,17Z-eicosatetraenoic acid) lactone on cytosolic [Ca^2+]i (FIG. 1), HUVECs were exposed to graded doses of 5,6-diHETE lactone (0.01-5 μmol/L) in ethanol/HEPES buffer, and the intracellular changes in [Ca^2+] were determined by the mean of fluoresces intensity. […] No significant differences in cytosolic [Ca^2+]i levels were detected beyond 0.5 μM lactone. Above this concentration the cytosolic [Ca^2+]i levels reach saturation.
These rapid pathways result in the reduction of epoxide concentrations, and thus, in a decrease in their activity. We therefore tested the ability of the hydrolyzed form compared to the unhydrolyzed form to increase intracellular calcium (FIG. 2).

`CCC=CCC=CCC=CCC=CCC(O)C1CCCC(=O)O1` (racemic) [5,6-diHETE lactone, 5,6 dihydroxyeicosatetraenoic acid (5,6-diHETE) lactone]: the “% dilation (relative to 100 μM papaverine)” value in experiment [1] turned out to be 29.4±3.1%. In addition, the results for the “% relaxation (relative to papaverine)” value with rat mesenteric arteries (5/6Nx vessels) and with rat mesenteric arteries (NT vessels) were 73.3±20.2% and 58.6±25.0%, respectively. For the same compound, the “effect of pre-treatment with TRAM-34 and apamin on induced relaxation” value in the experiment on rat mesenteric arteries (lactone 1 μmol/L, TRAM-34 1 μmol/L and apamin 1 μmol/L, p<0.01) is “significantly attenuated”. Further, the results for the max dilation in experiment [2] (hypertensive subjects) and in experiment [2] (normotensive subjects) were 40.9% and 58.6%, respectively. For the same compound, the “effect of L-NAME on the dilation” value in experiment [2] (hypertensive subjects, L-NAME 100 μmol/L) was “no effect”. Further, the “effect of mechanical denudation of the endothelial layer on induced dilation” value in experiment [2] (normotensive (healthy) arterioles) is “significantly reduced”. Besides, in experiment [2] (normotensive subjects, L-NAME 100 μmol/L), the “reduction of the dilation effect by L-NAME” value is 50%. The “concentration beyond which cytosolic [Ca2+]i levels show no significant differences (saturation)” value with HUVEC was 0.5 µM. In the experiment with HUVEC, the “lowest concentration causing a significant [Ca2+] increase” value is 0.01 µmol/L. For the same compound, the “changes in cellular [Ca2+]i” value in the experiment with HUVEC (2 μmol/L) is given as “induced”. Also, the EC50 with HUVEC (Homo sapiens, Fluo4 fluorescence, 0.01-5 μmol/L, read-out: EC50 of [Ca2+]i increase (F1max/F0)) came to 9.94 nM.
